Data: patent publication US9708628B2, “Cationic lipid having improved intracellular kinetics” (NOF CORPORATION, priority 2011, dated 2017)
“Also recorded” adds a separate entry of the source.

Tests used:
[1] = system: Rabbit Reticulocyte Lysate Systems; assay: Influence on in vitro translation reaction (luciferase mRNA); type: biochemical; conditions: MEND 0.0625-0.25 μg per 1 μL mRNA solution, 30° C., 90 min
Description: (§1) MENDs having a composition of B-2:SOPE:Chol=5:3:2 were prepared by the method described in [Experimental Example 1] (2). For the preparation, PEG2000-DMG was used as PEG lipid, and MEND solutions corresponding to 0.55 mM of the lipid concentration were prepared. For cationic MEND, lipids having a composition of DOTAP:DOPE:Chol:=3:4:3 were used, and the cationic MEND was prepared according to the method described in [Experimental Example 1] (3).
Luciferase-mRNA solution was diluted to 0.005 μg/μL. Various MEND solutions were added in 0.0625, 0.125, 0.25 μg relative to 1 μL of mRNA solution to adjust the total amount to 6.5 μL. A mixture of RRL (Rabbit Reticulocyte Lysate, 17.5 μL), AAM (Amino Acid Mixture)-Met (0.25 μL), AAM-Leu (0.25 μL), and RRI (Recombinant RNase Inhibitor, 0.5 μL) was added, and the mixture was stood at 30° C. for 90 min.
10 μL thereof was mixed with a Luciferase assay substrate (50 μL), and the luciferase activity in a given time was measured by a luminometer. […] Thereafter, the absorbance at 562 nm was measured, and the protein amount of the sample was calculated from the absorbance of a BSA solution having a known concentration. The luciferase activity (RLU) was adjusted by dividing with protein amount (mg), and the luciferase activity per cellular protein amount (RLU/mg protein) was calculated.

HT1080 cells [2] = assay: Gene expression by MEND (luciferase assay, RLU/mg protein); type: cell-based; conditions: for gene expression activity (luciferase activity per cell protein): cationic lipid:SOPE:Chol=3:4:3, PEG2000DSG, pDNA 0.4 μg/well, 24 hr; for gene expression activity: B-2-4:DOPE:Chol=3:3:4, B-2-5:POPE:Chol=3:3:4, B-2:SOPE:Chol=5:3:2, PEG2000-DMG
Description: as §1, with “Using B-2 (Example 1), B-2-1 (Comparative Example 1), and DODAP (Comparative Example 2) as cationic lipids, MENDs” for “MENDs”, “cationic lipid:SOPE:Chol=3:4:3” for “B-2:SOPE:Chol=5:3:2”, “PEG2000DSG” for “PEG2000-DMG”
HT1080 cells were plated on a 24-well plate at 4×10^4 cells/500 μL/well 24 hr before, various MENDs were diluted with DMEM (FBS 10%+) to a pDNA amount of 0.4 μg/500 μL/well and transfected. 24 hr later, the cells were washed with PBS(−) (500 μL), 1× Lysis buffer was added to each well by 75 μL, and the mixture was stood at −80° C. for 30 min or longer. The frozen 24-well plate was thawed on ice, the cells were detached with a cell scraper, and the total amount thereof was transferred into an Eppendorf tube and centrifuged under the conditions of 15000 rpm, 4° C., 5 min. The supernatant (50 μL) was recovered in a different Eppendorf tube, and used for luciferase assay and BCA assay.
20 μL thereof was mixed with a Luciferase assay substrate (50 μL), and the luciferase activity in a given time was measured by a luminometer. The obtained lysate was diluted 5-fold with DDW to achieve 25 μL total volume. Thereto was added BCA Protein Assay Reagent (200 μL), and the mixture was stood at 37° C. for 30 min. Thereafter, the absorbance at 562 nm was measured, and the protein amount of the sample was calculated from the absorbance of a BSA solution having a known concentration. The luciferase activity (RLU) was adjusted by dividing with protein amount (mg), and the luciferase activity per cell protein amount (RLU/mg protein) was calculated.
Using B-2 (Example 1), B-2-2 (Example 2), and B-2-3 (Example 3) as cationic lipids, MENDs having a composition of cationic lipid:SOPE:Chol=3:4:3 were prepared by the method described in [Experimental Example 1] (2). For the preparation, PEG2000DSG was used as PEG lipid, and MEND solutions corresponding to 0.55 mM of the lipid concentration were prepared. The gene expression was evaluated by the method described in [Example 4] (2).
(§2) Using compositions of B-2-4 (Example 4):DOPE:Chol=3:3:4, B-2-5 (Example 5):POPE:Chol=3:3:4, B-2 (Example 1):SOPE:Chol=5:3:2 as lipids, MENDs were prepared according to [Experimental Example 1](1) and (2). For the preparation, PEG2000-DMG was used as PEG lipid, and MEND solutions corresponding to 0.55 mM of the lipid concentration were prepared.
The gene expression activity was evaluated by the method described in [Experimental Example 4] (2).

HT1080 cells [3] = assay: Intracellular uptake pathway: influence of sucrose, amiloride, filipin on gene expression activity; type: cell-based; conditions: 0.3M sucrose, 1.5 mM amiloride
Description: as §2, with “4):DOPE:Chol=3:3:4,” for “4):DOPE:Chol=3:3:4, B-2-5 (Example 5):POPE:Chol=3:3:4,”, “lipid,” for “lipids,”, “1] (1),” for “1](1) and”
HT1080 cells were plated on a 24-well plate at 4×10^4 cells/500 μL/well 24 hr before. The medium was changed to DMEM (FBS+) containing filipin at a final concentration of […] 30 min before transfection. The medium was changed to DMEM (FBS+) containing a final concentration of 0.3M sucrose, and 1.5 mM amiloride 15 min before transfection. For transfection, various MENDs were added to the well at 0.8 μg/500 μL/well based on the pDNA amount. Thereafter, the gene expression activity was evaluated by the method described in [Experimental Example 4] (2).

HT1080 cells [4] = assay: Inhibitory effect of retinoic acid (RA) on gene expression; type: cell-based; conditions: 0, 5, 7.5, 10 μM RA
Description: MENDs of B-2-4 (Example 4), B-2 (Example 1) were prepared according to [Experimental Example 1] (1), (2), [Experimental Example 18]. For the preparation, PEG2000-DMG was used as PEG lipid, and MEND solutions corresponding to 0.55 mM of the lipid concentration were prepared.
HT1080 cells were plated on a 3.5 cm cell culture dish at 4×10^4 cells/2 mL/dish 24 hr before, various MENDs were diluted with DMEM (FBS 10%+, Phenol red free) containing a final concentration 200 μM of D-luciferin potassium and 0, 5, 7.5, 10 μM RA (sigma) to achieve 1.6 μg/2 mL/dish based on the pDNA amount and transfection was performed. According to the Kronos Dio package insert, the luminescence amount was measured for 2 min every 20 min and taken as the luciferase activity (RLU/2 min).

SMILES	inhibitory effect on in vitro translation reaction [1]	gene expression activity (luciferase activity per cell protein) (HT1080 cells [2])	gene expression activity (HT1080 cells [2])	gene expression with sucrose, amiloride, filipin (HT1080 cells [3])	gene expression activity in presence of RA (HT1080 cells [4])	gene transfer activity divided by the intracellular uptake amount (HT1080 cells [2]; FIG. 4)
CCCCCCCC/C=C\CCCCCCCC(=O)OCC(C[N+](C)(C)C)OC(=O)CCCCCCC/C=C\CCCCCCCC (centres unmarked) [DOTAP, reference compound]	significant inhibitory effect	–	–	–	–	–
CCCCCCCCCCCCCC(=O)OCCCN(C)CCCCCCN(C)CCCOC(=O)CCCCCCCCCCCCC [Example B-2-1, reference compound]	–	exceeded that of a conventionally-known cationic lipid, DODAP	–	–	–	–
CC1=C(/C=C/C(C)=C/C=C/C(C)=C/C(=O)OCCCN(C)CCSSCCN(C)CCCOC(=O)/C=C(C)/C=C/C=C(C)/C=C/C2=C(C)CCCC2(C)C)C(C)(C)CCC1 [Example B-2-4]	–	–	significantly higher than the activity of B-2 and B-2-5	inhibited by amiloride	decreased by RA in a concentration dependent manner	–
Cc1c(C)c2c(c(C)c1OC(=O)CCC(=O)OCCCN(C)CCSSCCN(C)CCCOC(=O)CCC(=O)Oc1c(C)c(C)c3c(c1C)CCC(C)(CCCC(C)CCCC(C)CCCC(C)C)O3)CCC(C)(CCCC(C)CCCC(C)CCCC(C)C)O2 (centres unmarked) [Example B-2-5]	–	–	equivalent to the activity of B-2	–	–	–
CCCCCCCCCCCCCC(=O)OCCCN(C)CCSSCCN(C)CCCOC(=O)CCCCCCCCCCCCC [Example B-2]	not observed	exceeded that of a conventionally-known cationic lipid, DODAP; also recorded: significantly higher than that of MEND prepared from B-2-1; also recorded: equivalent to that of DOTAP	–	inhibited by sucrose and amiloride	not decreased	high as compared to conventional DOTAP, DODAP and B-2-1
